Data on six molecules can be found in patent US10155807B2, “Treating alcohol-mediated disorders by inhibition of RGS6” (UNIVERSITY OF IOWA RESEARCH FOUNDATION, priority 2014, dated 2018).

As usually defined, the IC50 is the concentration that gives 50% inhibition.

Experiment [1] relates to neonatal VCM isolated from WT and RGS6−/− mice. As to conditions: 1 μM, 1.5 hour pre-treatment; 200 mM EtOH 24 hours; WT vs RGS6−/− VCM.
Protocol: Twenty-four hours after isolation and plating, cells were treated with 200 mM EtOH (24 hours) in the presence or absence of DPI (1 μM, 1.5 hour pre-treatment) where indicated. […] Intracellular ROS generation was estimated using the cell-permeable oxidation-sensitive probe, CM-H2DCFDA (Sigma) as described previously (Maity et al., J Biol Chem. 2011; 286(2):1409-19). Briefly, cells were harvested by centrifugation, washed three times with ice-cold PBS, re-suspended in PBS and incubated with 5 μM CM-H2DCFDA for 20 minutes at 37° C. After incubation cells were again washed and lysed in PBS with 1% Tween 20. ROS level was determined at the ratio of dichlorofluorescein excitation at 480 nm to emission at 530 nm.
Experiment [2] has as its target T1, RGS6:Gαo protein:protein interaction (ppi) (Homo sapiens, UniProt P49758).
T1 sequence (P49758 336-441 limits assumed): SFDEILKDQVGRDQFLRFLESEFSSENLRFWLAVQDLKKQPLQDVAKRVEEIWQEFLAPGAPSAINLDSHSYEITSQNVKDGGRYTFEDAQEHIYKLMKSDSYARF
Put plainly: Alpha Screen dose response, RGS6:Gαo protein:protein interaction. The settings on record: for IC50: Alpha Screen dose response, truncated RGS6 construct, read-out: IC50 for inhibition of RGS6:Gαo ppi; for selectivity for inhibiting the RGS6:Gαo ppi over the assay (control): ppi vs assay counter-screen. The class given is binding. The source says:
A high throughput screen based upon the protein-protein interaction between RGS6 and its cognate G protein has been developed. This is an approach used for other RGS proteins (Bodle et al. Future Med Chem 5: 995-1007, 2013; Mackie et al. J Biomol Screen 16: 869-877, 2011; Monroy et al. PloS one 8: e62247, 2013). Briefly, human RGS6 and G protein from E. coli is expressed and purified, which are then chemically modified to attach to microspheres. These microspheres (AlphaScreen) are then dispensed into high density experimental plates, with either 384 or 1536 wells per plate. Into each of these wells, an individual compound is dispensed, and through the use of a chemiluminescent reaction between the RGS6 and G protein coated beads, whether or not the two proteins are interacting is determined. […] A critical measure is the “Z-factor,” which indicates the ability to detect an inhibitor based on the screening signal strength, and the difference between positive and negative control values. A Z-factor between 0.5 and 1 is considered to be acceptable, and the Z-factor for the RGS6 assay is quite good, at 0.61. Using this method, a screen of 2320 compounds has been completed in 384-well plates. […] These compounds are being evaluated in testing for specificity and effectiveness in functional assays. Accessing the much larger 50,000 compound Chembridge library held by UI HTS will allow much larger coverage of “chemical space” to sample chemotypes that may represent RGS6 inhibitors with drug like properties.
As described herein, a role for RGS6 in the regulation of alcohol dependency traits, and that inhibition of this protein may act as a therapeutic intervention for the disease of alcohol addiction. As such, 2320 compounds were screened in an initial effort to discover small molecule inhibitors of the RGS6:Gαo protein:protein interaction (ppi). Alpha screen technology was used in this screen, where both proteins are conjugated to their respective donor or acceptor beads and if a ppi exists the proximity of the beads to each other results in emission of light at 520-620 nm. If a small molecule disrupts the ppi, then the intensity of light emitted is diminished.
IC50 values were obtained from dose response experiments using Alpha Screen technology. Compounds were determined to be promising based on these IC50 values, and based on the selectivity the compounds had for inhibiting the ppi versus inhibiting the assay. Since the Alpha Screen assay utilizes emitted light produced by singlet oxygen interacting with the acceptor bead as a determinant of ppi, highly colored compounds, or compounds that act as oxygen scavengers can produce false positive inhibition of the assay. […] This was not determined for UI1956.
The compounds identified in this screen represent the first generation of RGS6 inhibitors. A larger screening campaign will yield molecules that are both potent and selective for inhibiting RGS6 while containing minimal reactive substructures thus cutting down on the possible side effects that reactive molecules often produce. An additional screen will utilize the full RGS6 protein. This differs from the preliminary screen above in that a truncated RGS6 construct was used for ease of purification. […]
Background: The purpose of a counterscreen is to sort out artefacts and off-target activity.

The test system of experiment [3] is RGS6−/− mice. Put plainly: Activity measurement in home cage after baclofen (sedation). The class given is in vivo. The settings on record: 10 mg/kg i.p.; immobility time over 20 min. How it is done:
After drug treatment mice were placed back in their home cage and behavior videotaped for 20 min. Videos were scored for total immobility time (no discernable ambulation, grooming, social or other behaviors) by an observer blinded to mouse genotype. Data are presented as percent total time spent immobile.

The test system of experiment [4] is RGS6−/− mice. The experiment is described as follows: Short-term free choice alcohol consumption with daily GABABR antagonist treatment. The experiment is classed as in vivo. As to conditions: 12.5 mg/kg i.p. daily; 8% EtOH free choice phase. The text has this: RGS6 was identified as a critical negative regulator of cerebellum GABABR-regulated motor behavior (Maity et al., J Biol Chem. 2012; 287(7):4972-81). The involvement of GABABR signaling in the reduction in alcohol drinking observed in mice lacking RGS6 was investigated. […] Both the time course of GABABR-induced activation and deactivation of the mitogen activated protein kinase (MAPK) signaling cascade were pro-longed in the cortex of RGS6^−/− mice. […] To directly test the involvement of GABABR signaling in the reduction in alcohol seeking behavior seen in RGS6^−/− mice, the short-term free choice EtOH consumption paradigm was repeated with the addition of daily GABABR antagonist treatments.
Short-term alcohol consumption was measured in WT and RGS6^−/− mice essentially as previously described (Lockridge et al., Alcohol. 2012; 46(4):389-400). First, mice were individually housed for 2 days prior to the experiment. Each cage was then outfitted with two drinking bottles made from graduated serological pipettes sealed with parafilm to prevent evaporation and attached to each cage. […] Volume levels were recorded daily, tubes refilled and mice weighed. […] Alcohol (or saccharin/quinine) preference was calculated by dividing the EtOH volume consumed by the total fluid intake.

`c1ccc2c(c1)[I+]c1ccccc1-2` [DPI, diphenyleneiodonium]: in experiment [1], the “alcohol-induced ROS generation in VCM” value is given as “significantly reduced ROS generation in WT but not RGS6^−/− VCM”.
In the case of `Oc1ccc2c(c1)OCC1(O)Cc3cc(O)c(O)cc3C21` (centres unmarked) [UI1910], in experiment [2], the IC50 came to 17 µM and the “selectivity for inhibiting the RGS6:Gαo ppi over the assay (control)” value worked out at 30 fold.
In the case of `O=c1c(-c2cc(O)c(O)c(O)c2)coc2cc(O)c(O)c(O)c12` [UI1956], the IC50 in experiment [2] is 42 µM.
Turning to `NCC(CC(=O)O)c1ccc(Cl)cc1` (centres unmarked) [baclofen], the “sedative effect in RGS6−/− mice” value in experiment [3] was “remarkably sensitized to the sedative effects”.
Turning to `O=C1C=C2C[C@@]3(O)COc4cc(O)ccc4C3=C2C=C1O` [UI1935], in experiment [2], the half-inhibitory concentration (IC50) was found to be 49 µM and the “selectivity for inhibiting the RGS6:Gαo ppi over the assay (control)” value came out at 5 fold.
On to `CC1(C)CO[C@@H](CC(=O)O)CN1` [SCH-50911], for which the “effect on reduced EtOH consumption of RGS6−/− mice” value in experiment [4] is recorded as “partially reversed the reduction in alcohol consumption”.
